ChEMBL document CHEMBL1681673, “Anti-tumor pyrimidinylpiperazines bind to the prosurvival Bcl-2 protein family member Bcl-XL” (Bioorg Med Chem Lett, 2011)

Target: Bcl-2-like protein 1 (Homo sapiens, UniProt Q07817)
Assay: Binding affinity to Bcl-xL after 2 hrs by fluorescein-labeled Bak-BH3 peptide competition binding assay
Conditions: not given

Chain of Bcl-2-like protein 1 (Q07817 whole entry): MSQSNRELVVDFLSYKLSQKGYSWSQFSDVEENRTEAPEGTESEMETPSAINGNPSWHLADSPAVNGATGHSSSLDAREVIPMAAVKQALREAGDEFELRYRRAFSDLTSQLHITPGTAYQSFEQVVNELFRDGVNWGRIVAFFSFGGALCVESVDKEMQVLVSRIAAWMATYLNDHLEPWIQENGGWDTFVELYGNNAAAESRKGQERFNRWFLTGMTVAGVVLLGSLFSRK

**Q.** With `Oc1cccc(CN2CCN(c3ncc(Cc4ccccc4)cn3)CC2)c1` as the molecule, how does the Ki read?
**A.** 0.52 µM

**Q.** For `Nc1ccc(Cl)c(CN2CCN(c3ncc(Cc4ccccc4)cn3)CC2)c1`, which Ki is on record?
**A.** 0.17 µM

**Q.** With `c1ccc(Cc2cnc(N3CCN(Cc4ccccc4-c4cn[nH]c4)CC3)nc2)cc1` as the molecule, how does the Ki read?
**A.** 0.127 µM

Test system: A549
Assay: Growth inhibition of human A549 cells after 24 hrs by SRB assay
Format: functional
Conditions: A549, 24 h

**Q.** `O=[N+]([O-])c1ccc(Cl)c(CN2CCN(c3ncc(Cc4ccccc4)cn3)CC2)c1` was tested. Which GI50 did it give?
**A.** > 100 µM

**Q.** `CCc1cnc(N2CCN(Cc3cc([N+](=O)[O-])ccc3Cl)CC2)nc1` was tested. Which GI50 did it give?
**A.** 67.2 µM

**Q.** `CCc1cnc(N2CCN(Cc3ccccc3-c3cn[nH]c3)CC2)nc1` was tested. Which GI50 did it give?
**A.** 51.4 µM

**Q.** How did the GI50 turn out when `c1ccc(Cc2cnc(N3CCN(Cc4ccccc4)CC3)nc2)cc1` was run?
**A.** 49.6 µM

**Q.** With `CCc1cnc(N2CCN(Cc3cccc(N)c3)CC2)nc1` as the molecule, how does the GI50 read?
**A.** > 100 µM

**Q.** How did the GI50 turn out when `CCc1cnc(N2CCN(Cc3cccc(O)c3)CC2)nc1` was run?
**A.** > 100 µM

**Q.** `Oc1cccc(CN2CCN(c3ncc(Cc4ccccc4)cn3)CC2)c1` was tested. Which GI50 did it give?
**A.** 51.1 µM

**Q.** For `CCc1cnc(N2CCN(Cc3ccccc3)CC2)nc1`, which GI50 is on record?
**A.** > 100 µM

**Q.** How did the GI50 turn out when `CCc1cnc(N2CCN(Cc3ccccc3Br)CC2)nc1` was run?
**A.** 70.9 µM

**Q.** Which GI50 does the source give for `CCc1cnc(N2CCN(Cc3cc(F)ccc3-c3cn[nH]c3)CC2)nc1` here?
**A.** 49.2 µM

**Q.** Which GI50 does the source give for `Nc1ccc(Cl)c(CN2CCN(c3ncc(Cc4ccccc4)cn3)CC2)c1` here?
**A.** 15.1 µM

**Q.** `Nc1cccc(CN2CCN(c3ncc(Cc4ccccc4)cn3)CC2)c1` was tested. Which GI50 did it give?
**A.** 75.4 µM

**Q.** With `CCc1cnc(N2CCN(Cc3cc(F)ccc3Br)CC2)nc1` as the molecule, how does the GI50 read?
**A.** > 100 µM

**Q.** Which GI50 does the source give for `CCc1cnc(N2CCN(Cc3cc(N)ccc3Cl)CC2)nc1` here?
**A.** 62.9 µM

**Q.** `CCc1cnc(N2CCN(Cc3cccc([N+](=O)[O-])c3)CC2)nc1` was tested. Which GI50 did it give?
**A.** 88 µM

**Q.** Which GI50 does the source give for `Brc1ccccc1CN1CCN(c2ncc(Cc3ccccc3)cn2)CC1` here?
**A.** 86.5 µM

**Q.** How did the GI50 turn out when `Fc1ccc(Br)c(CN2CCN(c3ncc(Cc4ccccc4)cn3)CC2)c1` was run?
**A.** > 100 µM

**Q.** How did the GI50 turn out when `c1ccc(Cc2cnc(N3CCN(Cc4ccccc4-c4cn[nH]c4)CC3)nc2)cc1` was run?
**A.** 8.43 µM

**Q.** How did the GI50 turn out when `Fc1ccc(-c2cn[nH]c2)c(CN2CCN(c3ncc(Cc4ccccc4)cn3)CC2)c1` was run?
**A.** 9.91 µM

**Q.** For `Oc1ccc(Br)c(CN2CCN(c3ncc(Cc4ccccc4)cn3)CC2)c1`, which GI50 is on record?
**A.** 23.7 µM

**Q.** How did the GI50 turn out when `CCc1cnc(N2CCN(Cc3cc(O)ccc3Br)CC2)nc1` was run?
**A.** 57.6 µM

**Q.** How did the GI50 turn out when `O=[N+]([O-])c1cccc(CN2CCN(c3ncc(Cc4ccccc4)cn3)CC2)c1` was run?
**A.** 61.2 µM
